IC50 data for 19 compounds are collected here from patent US20240208912A1 (Mirati Therapeutics, Inc., priority 2021, published 2024).

Each structure is given as a SMILES string.

The target of the first experiment is T1, PRMT5/MEP50 complex (Homo sapiens, UniProt O14744).
T1 construct: purchased Reaction Biology Corporation
T1 sequence (O14744 2-637 limits assumed): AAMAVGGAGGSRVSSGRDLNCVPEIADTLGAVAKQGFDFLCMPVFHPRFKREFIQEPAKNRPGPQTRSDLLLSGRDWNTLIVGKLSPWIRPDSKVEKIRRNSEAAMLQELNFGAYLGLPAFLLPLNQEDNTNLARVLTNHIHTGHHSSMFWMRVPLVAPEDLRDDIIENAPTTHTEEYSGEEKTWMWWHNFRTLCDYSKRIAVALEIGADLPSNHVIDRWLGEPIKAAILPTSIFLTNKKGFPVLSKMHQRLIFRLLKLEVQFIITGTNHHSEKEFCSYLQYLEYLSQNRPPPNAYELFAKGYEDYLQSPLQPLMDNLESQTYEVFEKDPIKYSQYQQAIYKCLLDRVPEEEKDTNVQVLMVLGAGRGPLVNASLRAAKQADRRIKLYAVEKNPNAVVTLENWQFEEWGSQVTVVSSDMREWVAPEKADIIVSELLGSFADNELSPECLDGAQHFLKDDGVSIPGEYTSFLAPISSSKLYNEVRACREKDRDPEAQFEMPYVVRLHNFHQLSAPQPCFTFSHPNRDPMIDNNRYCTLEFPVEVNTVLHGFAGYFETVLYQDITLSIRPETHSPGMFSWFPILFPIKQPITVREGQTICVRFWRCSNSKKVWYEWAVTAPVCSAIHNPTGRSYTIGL
T1 sequence (Q9BQA1 2-342 partner limits assumed): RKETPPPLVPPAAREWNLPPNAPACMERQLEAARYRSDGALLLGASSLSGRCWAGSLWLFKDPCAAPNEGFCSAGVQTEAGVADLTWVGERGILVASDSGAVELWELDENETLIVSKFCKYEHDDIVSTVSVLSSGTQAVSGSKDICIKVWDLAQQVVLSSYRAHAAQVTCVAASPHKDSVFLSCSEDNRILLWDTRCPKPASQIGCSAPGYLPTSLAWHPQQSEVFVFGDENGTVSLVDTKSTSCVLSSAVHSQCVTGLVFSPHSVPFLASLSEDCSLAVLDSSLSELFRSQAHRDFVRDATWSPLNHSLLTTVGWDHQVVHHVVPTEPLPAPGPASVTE
In words: PRMT5:MEP50 HotSpot Assay (full-length histone H2A substrate, plus and minus MTA). It is filed as biochemical. The following applies: IC50 + 2 μM MTA, in the presence of 2 μM MTA. The method, then:
The PRMT5 inhibitory activity of compounds of the present invention was determined using either a PRMT5:MEP50 FlashPlate Assay (Reaction Biology Corporation) or a PRMT5:MEP50 HotSpot Assay (Reaction Biology Corporation).
The assay uses recombinant full-length hi stone H2A as the PRMT5 substrate. […] The reaction was stopped and transferred to filter paper for detection. The amount of tritiated H2A in each sample was determined using a scintillation counter.
A word on the IC50: it is the concentration that inhibits the measured activity by half. For `Cn1ncc(-c2ccc3c(=O)[nH]nc(CN)c3c2)c1-c1c(C#N)cc2[nH]cnc2c1Cl` (atropisomer, axis not shown; (M)) [Example 16-115, (M)-5-(4-(4-(aminomethyl)-1-oxo-1,2-dihydrophthalazin-6-yl)-1-methyl-1H-pyrazol-5-yl)-4-chloro-1H-benzo[d]imidazole-6-carbonitrile], the IC50 is 8720 nM. For the compound `Cn1ncc(-c2ccc3c(=O)[nH]nc(CN)c3c2)c1-c1c(Cl)ccc(OC2CC2)c1C#N` (atropisomer, axis not shown; (M)) [Example 16-132, (M)-2-(4-(4-(aminomethyl)-1-oxo-1,2-dihydrophthalazin-6-yl)-1-methyl-1H-pyrazol-5-yl)-3-chloro-6-cyclopropoxybenzonitrile], the IC50 was 251 nM. With `Cn1ncc(-c2ccc3c(=O)[nH]nc(CN)c3c2)c1-c1c(F)cc(S(F)(F)(F)(F)F)cc1C#N` (atropisomer, axis not shown; (M)) [Example 16-134, (M)-2-(4-(4-(aminomethyl)-1-oxo-1,2-dihydrophthalazin-6-yl)-1-methyl-1H-pyrazol-5-yl)-3-fluoro-5-(pentafluoro-16-sulfanyl)benzonitrile], the IC50 is 955 nM. The same measure, in the same setting: next, `Cn1ncc(-c2ccc3c(=O)[nH]nc(CN)c3c2)c1-c1c(F)cnc(OC2CC2)c1C#N` (atropisomer, axis not shown; (M)) [Example 16-136, (M)-4-(4-(4-(aminomethyl)-1-oxo-1,2-dihydrophthalazin-6-yl)-1-methyl-1H-pyrazol-5-yl)-2-cyclopropoxy-5-fluoronicotinonitrile]: 393 nM; `Cc1cnc2cc(F)c(-c3c(-c4ccc5c(=O)[nH]nc(CN)c5c4)cnn3C)c(C#N)c2c1` (atropisomer, axis not shown; (P)) [Example 16-36, (P)-6-[4-[4-(aminomethyl)-1-oxo-2H-phthalazin-6-yl]-2-methyl-pyrazol-3-yl]-7-fluoro-3-methyl-quinoline-5-carbonitrile]: 543 nM. As to `Cn1ncc(-c2ccc3c(=O)[nH]nc(CN)c3c2)c1-c1c(C#N)cc2[nH]cnc2c1Cl` (atropisomer, axis not shown; (P)) [Example 16-116, (P)-5-(4-(4-(aminomethyl)-1-oxo-1,2-dihydrophthalazin-6-yl)-1-methyl-1H-pyrazol-5-yl)-4-chloro-1H-benzo[d]imidazole-6-carbonitrile], the IC50 is 477 nM. `Cn1ncc(-c2ccc3c(=O)[nH]nc(CN)c3c2)c1-c1c(Cl)ccc(OC2CC2)c1C#N` (atropisomer, axis not shown; (P)) [Example 16-131, (P)-2-(4-(4-(aminomethyl)-1-oxo-1,2-dihydrophthalazin-6-yl)-1-methyl-1H-pyrazol-5-yl)-3-chloro-6-cyclopropoxybenzonitrile]: the IC50 was found to be 347 nM. Regarding `Cn1ncc(-c2ccc3c(=O)[nH]nc(CN)c3c2)c1-c1c(F)cc(S(F)(F)(F)(F)F)cc1C#N` (atropisomer, axis not shown; (P)) [Example 16-133, (P)-2-(4-(4-(aminomethyl)-1-oxo-1,2-dihydrophthalazin-6-yl)-1-methyl-1H-pyrazol-5-yl)-3-fluoro-5-(pentafluoro-16-sulfanyl)benzonitrile], the IC50 came to 1080 nM.

For `Cn1ncc(-c2ccc3c(=O)[nH]nc(CN)c3c2)c1-c1c(F)cnc(OC2CC2)c1C#N` (atropisomer, axis not shown; (P)) [Example 16-135, (P)-4-(4-(4-(aminomethyl)-1-oxo-1,2-dihydrophthalazin-6-yl)-1-methyl-1H-pyrazol-5-yl)-2-cyclopropoxy-5-fluoronicotinonitrile], the IC50 is 758 nM. Turning to `Cn1ncc(-c2ccc3c(=O)[nH]nc(CN)c3c2)c1-c1c(C2COC2)ccc2c1COC2` (atropisomer, axis not shown; (P)) [Example 16-137, (P)-4-(aminomethyl)-6-(1-methyl-5-(5-(oxetan-3-yl)-1,3-dihydroisobenzofuran-4-yl)-1H-pyrazol-4-yl)phthalazin-1(2H)-one], the concentration for half-maximal inhibition (IC50) was more than 10000 nM. Still for that read-out and setting: the same measure for `Cc1cc2ccccc2c(C#N)c1-c1c(-c2ccc3c(=O)[nH]nc(CN)c3c2)cnn1C` (single isomer, unassigned) [Example 12-15A]: 2380 nM; for `Cc1cc2ccccc2c(C#N)c1-c1c(-c2ccc3c(=O)[nH]nc(CN)c3c2)cnn1C` (single isomer, unassigned) [Example 12-15B]: 356 nM; for `Cc1c(F)c(-c2c(-c3cc(C)c4c(=O)[nH]nc(CN)c4c3)cnn2C)c(C#N)c2cc(Cl)cnc12` (single isomer, unassigned) [Example 16-107, (P)-6-(4-(4-(aminomethyl)-8-methyl-1-oxo-1,2-dihydrophthalazin-6-yl)-1-methyl-1H-pyrazol-5-yl)-3-chloro-7-fluoro-8-methylquinoline-5-carbonitrile]: 634 nM. As for `Cc1c(F)c(-c2c(-c3cc(C)c4c(=O)[nH]nc(CN)c4c3)cnn2C)c(C#N)c2cc(Cl)cnc12` (single isomer, unassigned) [Example 16-108, (M)-6-(4-(4-(aminomethyl)-8-methyl-1-oxo-1,2-dihydrophthalazin-6-yl)-1-methyl-1H-pyrazol-5-yl)-3-chloro-7-fluoro-8-methylquinoline-5-carbonitrile], the IC50 was found to be 5 nM. Still for that read-out and setting: next, `Cc1c(F)c(-c2c(-c3cc(Cl)c4c(=O)[nH]nc(CN)c4c3)cnn2C)c(C#N)c2cc(Cl)cnc12` (single isomer, unassigned) [Example 16-109, (P)-6-(4-(4-(aminomethyl)-8-chloro-1-oxo-1,2-dihydrophthalazin-6-yl)-1-methyl-1H-pyrazol-5-yl)-3-chloro-7-fluoro-8-methylquinoline-5-carbonitrile]: 1370 nM. Take `CCOc1cc(-c2cnn(C)c2-c2c(F)c(C)c3ncc(Cl)cc3c2C#N)cc2c(CN)n[nH]c(=O)c12` (single isomer, unassigned) [Example 16-112, (M)-6-(4-(4-(aminomethyl)-8-ethoxy-1-oxo-1,2-dihydrophthalazin-6-yl)-1-methyl-1H-pyrazol-5-yl)-3-chloro-7-fluoro-8-methylquinoline-5-carbonitrile]: the IC50 came to 51 nM. Same read-out and setting: the same measure for `Cc1c(Cl)cc(OC2CC2)c(C#N)c1-c1c(-c2ccc3c(=O)[nH]nc(CN)c3c2)cnn1C` (single isomer, unassigned) [Example 16-121, (M)-2-(4-(4-(aminomethyl)-1-oxo-1,2-dihydrophthalazin-6-yl)-1-methyl-1H-pyrazol-5-yl)-4-chloro-6-cyclopropoxy-3-methylbenzonitrile]: more than 10000 nM. The same measure, in the same setting: the same measure for `Cc1c(Cl)cc(OC2CC2)c(C#N)c1-c1c(-c2ccc3c(=O)[nH]nc(CN)c3c2)cnn1C` (single isomer, unassigned) [Example 16-122, (P)-2-(4-(4-(aminomethyl)-1-oxo-1,2-dihydrophthalazin-6-yl)-1-methyl-1H-pyrazol-5-yl)-4-chloro-6-cyclopropoxy-3-methylbenzonitrile]: 112 nM.

The experiment is the same for the next values; noted with them: read-out: IC50 + 2 μM MTA, in the presence of 2 μM MTA.
In the case of `Cn1ncc(-c2ccc3c(=O)[nH]nc(CN)c3c2)c1-c1c(C2COC2)ccc2c1COC2` (atropisomer, axis not shown; (M)) [Example 16-138, (M)-4-(aminomethyl)-6-(1-methyl-5-(5-(oxetan-3-yl)-1,3-dihydroisobenzofuran-4-yl)-1H-pyrazol-4-yl)phthalazin-1(2H)-one], the IC50 was more than 10000 nM.
